Laboratory results taken from EP0751768B1, “ANTI-VIRAL AND ANTI-CANCER AGENT” (Radopath Pharmaceuticals International Limited, priority 1994, dated 1995).
Values joined by “and” are separate entries in the source; they are usually repeats but may differ in a detail not shown here. Equal entries are not always repeated.

Experiments:
HIV-I IIIB = test: Acute infection assay, HIV core antigen ELISA (HIV-I IIIB); format: cell-based
[1] = test system: M5076-reticulum cell sarcoma; test: Anti-tumour activity against M5076 solid tumour (tumour weight inhibition); format: in vivo, murine; settings: for % Tumour Weight Inhibition: 16 days after im transplant, corn oil
Procedure: (§1) The in vivo anti-tumour responses of the compound according to the invention were assessed against the ascitic tumours, MAC15A murine colon adenocarcinoma and various solid tumour models. The MAC15A ascites tumour cells were transplanted into male NMR1 mice by ip innoculation at a cell density of 1 x 10^5 cells in 200µl buffer (Table I). The solid tumour models included the MAC13 and MAC16 murine colon adenocarcinomas, the B16 F1 murine melanoma and the M5076 reticulum cell sarcoma.
(§2) Treatment commenced 3 days after ip transplant or, in the case of solid tumours such as MAC13 and MAC16, treatment commenced when average tumour volumes reached 40mm^3.
(§3) The animals were located in both cases into groups of 5 to 8 animals.
(§4) The animals were sacrificed after 12 days or when tumours ulcerated, tumour volume exceeded 1000mm^3 or loss of body weight exceeded 50%.
(§5) Except where otherwise stated, the compound used was dissolved in DMSO and diluted in sterile distilled water, at appropriate concentrations before administration in a solvent volume of 200µl. Anti-tumour responses were obtained by comparing the median survival times or tumour growth inhibition against solvent controls.
(§6) % Tumour Weight Inhibition:-

[2] = as above; format: in vivo, murine; settings: mouse, in vivo; ip, per day, in corn oil; M5076 study; read-out: Maximum tolerated dose
Procedure: as §1, §2, §3, §4, §5, §6

[3] = test system: MAC15A (murine adenocarcinoma colon); format: in vivo, NMR1 mice; settings: mouse, in vivo, ip
uninfected H9 cells = test: Toxicity in uninfected H9 cells, 14C protein hydrolysate incorporation, four days; format: cell-based; settings: listed under Against Chronically infected cells; average of the lines above
Procedure: • (i) Acute Infection Assay. High titre virus stocks of the human immunodeficiency virus HIV-1RF were grown in H9 cells with RM1 1640 (Flow laboratories) supplemented with 10% fetal calf serum, penicillin (100IU/ml). Cell debris was removed by low speed centrifugation, and the supernatant stored at -70°C until required. In a typical assay C8166 T-lymphoblastoid CD4+ cells were incubated with 10xTCID50 HIV-1RF at 37°C for 90 minutes and then washed three times with phosphate buffered saline (PBS). Cell aliquots (2 x 10^5) were resuspended in 1.5ml growth medium in 6ml tubes, and active compounds in log dilutions [200µM to 0.2µM] were added immediately. 20mM stock solutions of each compound were made up in 70% alcohol. The compounds were stored as a powder and made up freshly in distilled water before each experiment or were stored as a […] stock solution in 70% alcohol. The final concentration of alcohol in the tissue culture medium was 1%. The cells were then incubated at 37°C in 5% CO2. […] The ELISA plates were read with a spectrophotometer. […] HIV-1 antigen in the supernatant was then measured using an ELISA. […] After 6 hours the cells were harvested and the ^14C incorporation measured. • (iii) Toxicity Assay. […] After 12, hours the cells were harvested and the ^14C incorporation measured. […] Toxicity is expressed as inhibition of uptake of ^14C protein hydrolysate. […]

[4] = test system: MAC16, murine colon adenocarcinoma; test: Anti-tumour activity against MAC16 (tumour weight inhibition); format: in vivo; settings: for % Tumour Weight Inhibition: sc transplanted, day 11 after the beginning of treatment, tumour volumes at least 40mm^3 at start, corn oil
Procedure: as §1, §2, §3, §4, §5, §6

in vitro = settings: CC50 (Toxicity)
HIV-1RF = test: microbe, parasite or virus in culture; format: cell-based, human immunodeficiency virus HIV-1RF
[5] = test system: Chronically infected cells (H9rf); test: Chronically infected cell assay, HIV-1 antigen ELISA; format: cell-based; settings: Against Chronically infected cells
[6] = test system: MAC13 murine colon adenocarcinoma; test: Anti-tumour activity against MAC13 (tumour weight inhibition); format: in vivo; settings: 12 days after im transplant, corn oil
Procedure: as §1, §2, §3, §4, §5, §6

B16F1-murine melanoma = format: in vivo; settings: mouse, in vivo

Question: Which results are given for `COC(=O)c1cc([N+](=O)[O-])c(Cl)c([N+](=O)[O-])c1Cl` [C3, 2,4-dichloro-3,5-dinitrobenzoic acid methyl ester]?
Answer: SI (Selectivity Index) (HIV-I IIIB): 23; CC50 (uninfected cells): 7 µM; anti-tumour activity (in words) [1]: without anti-tumour activity; % Tumour Weight Inhibition ([1]; 0.25 mg/kg per day ip, days 1,2,3,4,5,6,7,8,9): 42%; % Tumour Weight Inhibition ([1]; 0.5 mg/kg per day ip, days 1,2,3,4,5,6,7,8,9): 39%; % Tumour Weight Inhibition ([1]; 1.0 mg/kg per day ip, days 1,2,3,4,5,6,7,8,9): 41%; increase in toxicity ([1]; relative to 2,4-dichloro-3,5-dinitrobenzoic acid): 10 fold; MTD [2]: 1 mg/kg

Question: What does the source list for `O=C(O)c1cc([N+](=O)[O-])c(Cl)c([N+](=O)[O-])c1Cl` [C1, 2,4-dichloro-3,5-dinitrobenzoic acid]?
Answer: SI (Selectivity Index) (HIV-I IIIB): 2; SI (Selectivity Index), Average (HIV-I IIIB): 3; IC50 (HIV-I IIIB; Human immunodeficiency virus 1, IIIB, read-out: IC50 (Antiviral), Average): 27 µM; T/C% [3]: 243%; CC50 (uninfected H9 cells): 63 µM; % Tumour Weight Inhibition ([4]; 50 mg/kg per day ip, days 1,2,4,5,8): 91%; % Tumour Weight Inhibition ([4]; 75 mg/kg per day ip, days 1,2,5,8): 88%; inhibition of tumour growth (in words) ([4]; MAC16 murine colon adenocarcinoma): effectively inhibited growth; CC50 (in vitro): 30 µM; SI (Selectivity Index), Average (HIV-1RF): 5; IC50 (HIV-1RF; Human immunodeficiency virus 1, C8166, read-out: IC50 (Antiviral), Average): 11.5 µM; % Tumour Weight Inhibition ([1]; 25 mg/kg per day ip, days 1,2,4,6,9): 75%; % Tumour Weight Inhibition ([1]; 25 mg/kg per day sc, days 1,2,4,5,6,7,9): 63%; % Tumour Weight Inhibition ([1]; 50 mg/kg per day ip, days 1,4,6,9): 57%; % Tumour Weight Inhibition ([1]; 50 mg/kg per day sc, days 1,2,4,5,6,7,9): 76%; % Tumour Weight Inhibition ([1]; 75 mg/kg per day ip, days 1,4,6,9, listed as 2,4 BA): 79% and 88%; % Tumour Weight Inhibition ([1]; 75 mg/kg per day sc, days 1,4,5,7,9): 66%; activity on a split-dose schedule down to (dose) ([1]; by both ip and sc routes): 25 mg/kg body weight; SI (Selectivity Index), Average ([5]; average line): 4; IC50 ([5]; Human immunodeficiency virus 1, 96 h, four days, single determinations, read-out: IC50 (Antiviral)): 16 µM; % Tumour Weight Inhibition ([6]; 50 mg/kg per day ip, days 1,2,3,4,5,6,7,8,9): 39%; % Tumour Weight Inhibition ([6]; 75 mg/kg per day ip, days 1,4,5): 45%; inhibition of tumour growth (in words) (B16F1-murine melanoma): effectively inhibited growth
